According to PMC10746280, “Bacterial efflux pump modulators prevent bacterial growth in macrophages and under broth conditions that mimic the host environment” (mBio, 2023):

Tests used:
[1] = system: Bacillus subtilis expressing mNeongreen-FtsZ; assay: Membrane voltage disruption assay (mNeongreen-FtsZ delocalization); assay type: cell-based
From the text: We therefore monitored membrane integrity in the presence of EPM analogs by evaluating membrane voltage with mNeongreen-FtsZ ([28][–][30]). The FtsZ protein localizes to the bacterial septum based on membrane potential, and rapid delocalization of fluorescent FtsZ reporters occurs when voltage across the membrane is disrupted ([31], [32]). We monitored mNeongreen-FtsZ localization in a Gram-positive bacterium, Bacillus subtilis, to eliminate the potentially confounding issue of the passage of EPM analogs through the outer membrane at different rates ([24], [33][–][36]).
To determine whether exposure to compound dislodges FtsZ from the cell septum, an overnight culture of Bacillus subtilis grown in LPM at pH 5.5 (LPM 5.5) expressing mNeonGreen-FtsZ (strain DK5092) was exposed to DMSO, CCCP (100 µM) or an EPM analog (150 µM) for 15 or 30 min, as indicated. Bacteria were immobilized on 1% agarose pads made with LPM under a coverslip. To set the threshold value for the FtsZ septal ring, mNeonGreen signal (excitation 488 nm, emission 525 nm) from at least 20 DMSO-treated cells was quantified using a CV1000 confocal microscope with a 100× oil, NA = 1.4 objective. A background-subtracted image was made by subtracting the median intensity from full original images. A signal threshold of ≥400 arbitrary units per pixel was set (Fig. 4B). Then, we manually confirmed that mNeonGreen signal above threshold was at the center of the bacterial rod. We examined 50 cells per sample from at least three biological replicates (≥150 cells per condition). A MATLAB program (https://github.com/Betterton-Lab/FtsZ-Quantification) counted the number of pixels above threshold per cell and averaged this value across all cells for each condition and this value is reported in the graph (Fig. 4C).

[2] = system: S. Typhimurium SL1344 (sifB::gfp) in RAW 264.7 macrophages; assay: SAFIRE macrophage assay: intracellular bacterial load (GFP signal within macrophages); assay type: cell-based, Salmonella enterica serotype Typhimurium
Procedure, shortened: (§1)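 RAW 264.7 macrophages infected with S. Typhimurium SL1344 sifB::gfp (MOI ~30), gentamicin 40 µg/mL, then compound from 2 h to 18 h post-infection. Confocal imaging with MitoTracker and DAPI; toxicity as adherent MitoTracker-positive macrophage count, bacterial load as GFP+ macrophage area.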

S. Typhimurium = assay: Checkerboard growth assays with antibiotics in LPM 5.5 (FICI and MuSyC analyses); assay type: cell-based; parameters: Antibiotic MIC Combination: unit not given here; EPM MIC Combination: unit: µM; details: for log10(α1) [95% CI] (log-fold-change in potency of EPM due to the antibiotic) / Βobs [95% CI] (proportion increase in maximal efficacy of the antibiotic) / log10(α2) [95% CI] (log-fold-change in potency of the antibiotic due to the EPM): MuSyC fit; for Antibiotic MIC Combination / EPM MIC Combination / FICI value: LPM 5.5
Protocol: To examine whether the EPM analogs interact additively or synergistically with antibiotics, checkerboard growth assays were carried out in LPM 5.5. We compared three antibiotics (ciprofloxacin, doxycycline, erythromycin) and three EPM analogs (CU032, CU187, CU232) and the EPM35 parent compound (Fig. 6A). Standard fractional inhibitory concentration index (FICI) analyses supported synergy between the EPM analogs and ciprofloxacin (Fig. 6B). Since FICI values cannot distinguish between synergy due to changes in potency (activity) versus efficacy (the extent of the effect) ([42], [43]), we used the MuSyC synergy algorithm to measure EPM-antibiotic synergy ([44], [45]). The data were well fit by the MuSyC equation, with an R^2 of greater than 0.96 for all checkerboards (Table S2). […] Moreover, the consistency in the synergy of potency values across the antibiotics with different EPM analogs points toward a shared mechanism of action: the EPMs could modify the pharmacodynamics of the efflux process and prevent export of specific substrates through interactions with AcrB. We posit that the EPMs differentially reduce antibiotic export resulting in a higher effective intracellular concentration of the antibiotic.
Overnight cation-adjusted MHB-grown cultures of SL1344 or SA10801 were diluted in MHB or LPM 5.5 to an optical density at 600 nm (OD600) of 0.01 and distributed into polystyrene 96-well flat-bottom plates. EPM analogs were added at concentrations up to 300 µM, near the limit of solubility. The antibiotics ciprofloxacin, doxycycline, and erythromycin were added up to concentrations of 2 µM, 2 µM, and 8 µM, respectively. The final DMSO concentration was at or below 2% in all wells. Plates were grown at 37°C with shaking for 18 h and OD600 was monitored (BioTek Synergy H1, BioTek Eon). Each experiment was performed with biological triplicate or higher as indicated. Percent growth was determined by normalizing to OD600 reads in wells containing no D66 or antibiotic. Checkerboards in LPM 5.5 medium were performed with culture grown overnight in LB and diluted to an OD600 of 0.01 in LPM 5.5 and compounds/antibiotics were added as previously described. MuSyC analysis was pursued as previously described ([44], [45]). Briefly, the 2D Hill equation was fit to the normalized growth inhibition data from the checkerboards using a bounded non-linear least square regression algorithm. A Monte Carlo sampling method was used to compute the 95% CI in the parameter fits from three biological replicates. The bounds on the parameters minimal and maximal efficacy of the antibiotics and EPMs (E0,Emax) were [0.99,1.01] and [0,1], respectively ([44], [45]).

RAW 264.7 macrophages = assay: SAFIRE macrophage assay: host toxicity (adherent macrophage count, morphology); assay type: cell-based
Procedure, shortened: as §1

[3] = target: Klebsiella pneumoniae AcrB multidrug efflux pump; parameters: method as in PMID 37067435; details: K. pneumoniae AcrB; cited from earlier work

**Q.** Which “effect on FtsZ localization” value ([1]; 100 µM) does the source give for `N#CC(C#N)=NNc1cccc(Cl)c1` [CCCP, carbonyl cyanide m-chlorophenyl hydrazone, reference compound] here?
**A.** The value was “delocalized FtsZ”.

**Q.** Which results are given for `NC1CCN(CC(O)COc2ccc(Cl)cc2)CC1` (stereo not shown) [CU187]?
**A.** 5 uM Avg Antibacterial Score ([2]; 5 uM, 'Toxic' given instead of a score): 25; 25 uM Avg Antibacterial Score ([2]; 25 uM, 'Toxic' given instead of a score): 24; IC50 ([2]; Salmonella enterica, TYPHIMURIUM, RAW264.7, read-out: SAFIRE IC50): 0.0004 µM; log10(α1) [95% CI] (log-fold-change in potency of EPM due to the antibiotic) (S. Typhimurium; Ciprofloxacin): 0.33 [0.19,0.37]; Βobs [95% CI] (proportion increase in maximal efficacy of the antibiotic) (S. Typhimurium; Ciprofloxacin): 0.01 [-0.01,0.04]; log10(α1) [95% CI] (log-fold-change in potency of EPM due to the antibiotic) (S. Typhimurium; Doxycycline): 0.32 [-0.07,0.39]; log10(α2) [95% CI] (log-fold-change in potency of the antibiotic due to the EPM) (S. Typhimurium; Doxycycline): 0.46 [0.37,0.47]; Βobs [95% CI] (proportion increase in maximal efficacy of the antibiotic) (S. Typhimurium; Doxycycline): 0.02 [-0.0,0.02]; log10(α2) [95% CI] (log-fold-change in potency of the antibiotic due to the EPM) (S. Typhimurium; Erythromycin): 0.93 [0.85,0.96]; Βobs [95% CI] (proportion increase in maximal efficacy of the antibiotic) (S. Typhimurium; Erythromycin): 0.04 [0.03,0.04]; Antibiotic MIC Combination (S. Typhimurium; ciprofloxacin (CIPRO) MIC in combination with the EPM): 0.2; Antibiotic MIC Combination (S. Typhimurium; doxycycline (DOXY) MIC in combination with the EPM): 1; EPM MIC Combination (S. Typhimurium; with ciprofloxacin (CIPRO)): 66; FICI value (S. Typhimurium; with ciprofloxacin (CIPRO)): 0.27; EPM MIC Combination (S. Typhimurium; with doxycycline (DOXY)): 100; FICI value (S. Typhimurium; with doxycycline (DOXY)): 0.45; EPM MIC Combination (S. Typhimurium; with erythromycin (ERY)): 100; FICI value (S. Typhimurium; with erythromycin (ERY)): 0.58; effect on mNeongreen-FtsZ ring size / localization ([1]; 150 µM, 15 min, LPM 5.5): did not alter FtsZ localization; 5 uM Avg Cell # Score (RAW 264.7 macrophages; 5 uM): 121; 25 uM Avg Cell # Score (RAW 264.7 macrophages; 25 uM): 98

**Q.** Which “Avg Antibact Score” value ([2]; control, rifampicin 2 μg/mL, DMSO = 98) does the source give for `CO[C@H]1/C=C/O[C@@]2(C)Oc3c(C)c(O)c4c(O)c(c(/C=N/N5CCN(C)CC5)c(O)c4c3C2=O)NC(=O)/C(C)=C\C=C\[C@H](C)[C@H](O)[C@@H](C)[C@@H](O)[C@@H](C)[C@H](OC(C)=O)[C@@H]1C` [Rifampicin] here?
**A.** The value was 65.

**Q.** What about the “Avg Cell # Score” value (RAW 264.7 macrophages; control, rifampicin 2 μg/mL, DMSO = 100) of the same compound?
**A.** The value was 111.

**Q.** For `CC[C@H]1OC(=O)[C@H](C)[C@@H](O[C@H]2C[C@@](C)(OC)[C@@H](O)[C@H](C)O2)[C@H](C)[C@@H](O[C@@H]2O[C@H](C)C[C@H](N(C)C)[C@H]2O)[C@](C)(O)C[C@@H](C)C(=O)[C@H](C)[C@@H](O)[C@]1(C)O` [erythromycin], which Kd [3] is on record?
**A.** The Kd was 14.4 µM.
